Test results taken from patent US12479847B2 (DANA-FARBER CANCER INSTITUTE, INC., priority 2019, dated 2025).

How the values were obtained:
Test in all cases: KINOMEscan (ScanMAX) kinase profiling
Format in all cases: binding
panel of 468 kinases [1] = biological target: T1, panel of 468 kinases (Homo sapiens, UniProt Q2M2I8); details: AAK1; 1 μM; read-out: % control
T1 construct: purchased KINOMEscan (ScanMAX) service

panel of 468 kinases [2] = biological target: T2, panel of 468 kinases (Homo sapiens, UniProt Q06418); details: TYRO3; 1 μM; read-out: % control
T2 construct: purchased KINOMEscan (ScanMAX) service
T2 sequence (Q06418 41-890): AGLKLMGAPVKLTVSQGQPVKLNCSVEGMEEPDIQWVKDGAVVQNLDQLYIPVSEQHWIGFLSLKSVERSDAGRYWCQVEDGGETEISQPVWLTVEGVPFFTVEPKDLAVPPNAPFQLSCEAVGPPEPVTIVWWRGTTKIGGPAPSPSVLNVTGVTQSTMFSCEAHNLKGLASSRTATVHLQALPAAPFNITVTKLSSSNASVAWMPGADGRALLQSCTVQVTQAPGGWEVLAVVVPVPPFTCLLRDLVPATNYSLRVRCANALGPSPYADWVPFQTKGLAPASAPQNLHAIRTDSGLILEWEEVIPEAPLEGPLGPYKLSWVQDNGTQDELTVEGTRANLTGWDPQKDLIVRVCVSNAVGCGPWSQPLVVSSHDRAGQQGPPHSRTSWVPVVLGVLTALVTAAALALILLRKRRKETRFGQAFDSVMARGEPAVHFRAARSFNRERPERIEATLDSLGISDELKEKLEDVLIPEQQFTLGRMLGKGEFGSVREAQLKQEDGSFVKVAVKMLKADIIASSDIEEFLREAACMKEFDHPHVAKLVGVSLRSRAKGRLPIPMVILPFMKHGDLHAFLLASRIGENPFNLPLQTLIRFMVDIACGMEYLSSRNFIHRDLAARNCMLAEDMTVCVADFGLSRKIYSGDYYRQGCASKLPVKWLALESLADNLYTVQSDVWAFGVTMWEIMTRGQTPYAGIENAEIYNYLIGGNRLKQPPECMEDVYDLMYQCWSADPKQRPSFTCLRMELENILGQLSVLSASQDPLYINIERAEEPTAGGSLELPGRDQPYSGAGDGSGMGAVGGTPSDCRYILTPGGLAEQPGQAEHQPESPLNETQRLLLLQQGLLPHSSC

panel of 468 kinases [3] = biological target: T3, panel of 468 kinases (Homo sapiens, UniProt P42336, H1047L); details: PIK3CA(H1047L); 1 μM; read-out: % control
T3 construct: purchased KINOMEscan (ScanMAX) service

panel of 468 kinases [4] = biological target: T4, panel of 468 kinases (Homo sapiens, UniProt P49336); details: CDK8; 1 μM; read-out: % control
T4 construct: purchased KINOMEscan (ScanMAX) service

panel of 468 kinases [5] = biological target: T5, panel of 468 kinases (Homo sapiens, UniProt Q9NRP7); details: STK36; 1 μM; read-out: % control
T5 construct: purchased KINOMEscan (ScanMAX) service
T5 sequence (Q9NRP7 1-1315): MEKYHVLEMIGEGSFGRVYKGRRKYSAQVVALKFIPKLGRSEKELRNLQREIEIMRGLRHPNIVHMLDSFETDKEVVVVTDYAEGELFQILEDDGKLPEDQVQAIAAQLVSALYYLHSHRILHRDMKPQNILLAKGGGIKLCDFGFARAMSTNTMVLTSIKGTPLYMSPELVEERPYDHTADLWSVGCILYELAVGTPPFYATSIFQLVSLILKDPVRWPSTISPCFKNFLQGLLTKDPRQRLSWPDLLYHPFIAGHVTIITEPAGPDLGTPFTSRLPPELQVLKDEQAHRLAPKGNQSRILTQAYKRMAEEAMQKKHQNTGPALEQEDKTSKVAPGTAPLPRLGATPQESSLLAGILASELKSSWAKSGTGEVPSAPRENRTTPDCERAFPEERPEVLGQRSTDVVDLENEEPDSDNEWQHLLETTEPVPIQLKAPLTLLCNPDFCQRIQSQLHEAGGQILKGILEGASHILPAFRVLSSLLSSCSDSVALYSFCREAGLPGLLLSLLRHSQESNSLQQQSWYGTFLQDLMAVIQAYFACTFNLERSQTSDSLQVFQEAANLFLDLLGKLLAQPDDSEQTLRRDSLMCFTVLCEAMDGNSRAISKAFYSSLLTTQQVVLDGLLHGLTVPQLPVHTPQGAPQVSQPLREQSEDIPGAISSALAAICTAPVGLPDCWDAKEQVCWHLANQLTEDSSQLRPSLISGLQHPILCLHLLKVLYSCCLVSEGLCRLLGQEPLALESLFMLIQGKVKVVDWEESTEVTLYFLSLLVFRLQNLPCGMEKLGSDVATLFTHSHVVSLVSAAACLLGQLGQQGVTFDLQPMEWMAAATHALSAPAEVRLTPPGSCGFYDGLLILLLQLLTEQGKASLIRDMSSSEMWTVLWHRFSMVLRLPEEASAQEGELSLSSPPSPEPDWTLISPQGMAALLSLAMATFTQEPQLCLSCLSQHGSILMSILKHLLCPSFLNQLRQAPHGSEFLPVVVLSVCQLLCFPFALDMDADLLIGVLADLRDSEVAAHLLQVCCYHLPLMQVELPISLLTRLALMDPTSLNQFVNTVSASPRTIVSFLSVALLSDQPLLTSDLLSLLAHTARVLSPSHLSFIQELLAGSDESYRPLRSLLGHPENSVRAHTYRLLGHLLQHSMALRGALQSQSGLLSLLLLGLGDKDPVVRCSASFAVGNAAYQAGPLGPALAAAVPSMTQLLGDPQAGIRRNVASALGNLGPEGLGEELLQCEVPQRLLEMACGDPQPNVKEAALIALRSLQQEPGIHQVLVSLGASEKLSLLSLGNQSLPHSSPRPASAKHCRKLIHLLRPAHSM

T1 sequence (Q2M2I8 whole entry): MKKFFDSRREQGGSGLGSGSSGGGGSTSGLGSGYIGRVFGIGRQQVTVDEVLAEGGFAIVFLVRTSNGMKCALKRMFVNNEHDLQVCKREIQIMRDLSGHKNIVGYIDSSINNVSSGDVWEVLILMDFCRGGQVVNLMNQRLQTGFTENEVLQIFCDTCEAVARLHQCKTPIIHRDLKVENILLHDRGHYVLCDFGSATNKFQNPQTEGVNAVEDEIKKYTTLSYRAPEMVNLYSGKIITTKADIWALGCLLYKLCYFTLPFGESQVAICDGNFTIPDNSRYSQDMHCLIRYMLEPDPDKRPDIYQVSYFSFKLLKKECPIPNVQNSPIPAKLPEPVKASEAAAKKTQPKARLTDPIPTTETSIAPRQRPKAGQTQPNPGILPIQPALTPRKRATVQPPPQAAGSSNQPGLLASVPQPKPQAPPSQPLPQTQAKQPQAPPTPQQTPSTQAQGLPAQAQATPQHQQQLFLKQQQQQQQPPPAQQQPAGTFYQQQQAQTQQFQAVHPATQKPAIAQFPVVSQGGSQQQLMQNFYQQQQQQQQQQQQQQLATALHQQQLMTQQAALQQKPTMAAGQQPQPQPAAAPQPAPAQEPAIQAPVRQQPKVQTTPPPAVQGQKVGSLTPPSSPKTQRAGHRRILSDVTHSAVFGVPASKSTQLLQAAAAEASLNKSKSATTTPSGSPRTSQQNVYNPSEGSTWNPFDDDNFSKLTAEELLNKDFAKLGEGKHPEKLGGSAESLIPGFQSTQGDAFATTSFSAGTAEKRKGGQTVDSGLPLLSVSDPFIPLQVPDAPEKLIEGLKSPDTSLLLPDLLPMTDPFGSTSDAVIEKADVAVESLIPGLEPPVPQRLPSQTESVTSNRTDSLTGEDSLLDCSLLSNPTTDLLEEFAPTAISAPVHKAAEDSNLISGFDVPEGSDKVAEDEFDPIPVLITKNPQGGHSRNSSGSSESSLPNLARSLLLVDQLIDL
T4 sequence (P49336 whole entry): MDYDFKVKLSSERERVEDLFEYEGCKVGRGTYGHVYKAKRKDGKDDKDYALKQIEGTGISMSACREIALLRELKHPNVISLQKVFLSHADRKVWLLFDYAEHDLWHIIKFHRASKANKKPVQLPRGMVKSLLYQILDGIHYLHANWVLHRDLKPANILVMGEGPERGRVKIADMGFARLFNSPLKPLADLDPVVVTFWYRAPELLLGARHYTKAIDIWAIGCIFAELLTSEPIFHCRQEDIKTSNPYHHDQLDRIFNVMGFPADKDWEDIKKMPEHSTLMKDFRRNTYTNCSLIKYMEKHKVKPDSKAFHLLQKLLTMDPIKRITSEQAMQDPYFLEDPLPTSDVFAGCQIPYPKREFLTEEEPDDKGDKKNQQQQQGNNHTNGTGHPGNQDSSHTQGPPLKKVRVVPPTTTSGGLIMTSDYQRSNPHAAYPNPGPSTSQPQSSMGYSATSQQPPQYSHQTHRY
T3 sequence (P42336 whole entry H1047L): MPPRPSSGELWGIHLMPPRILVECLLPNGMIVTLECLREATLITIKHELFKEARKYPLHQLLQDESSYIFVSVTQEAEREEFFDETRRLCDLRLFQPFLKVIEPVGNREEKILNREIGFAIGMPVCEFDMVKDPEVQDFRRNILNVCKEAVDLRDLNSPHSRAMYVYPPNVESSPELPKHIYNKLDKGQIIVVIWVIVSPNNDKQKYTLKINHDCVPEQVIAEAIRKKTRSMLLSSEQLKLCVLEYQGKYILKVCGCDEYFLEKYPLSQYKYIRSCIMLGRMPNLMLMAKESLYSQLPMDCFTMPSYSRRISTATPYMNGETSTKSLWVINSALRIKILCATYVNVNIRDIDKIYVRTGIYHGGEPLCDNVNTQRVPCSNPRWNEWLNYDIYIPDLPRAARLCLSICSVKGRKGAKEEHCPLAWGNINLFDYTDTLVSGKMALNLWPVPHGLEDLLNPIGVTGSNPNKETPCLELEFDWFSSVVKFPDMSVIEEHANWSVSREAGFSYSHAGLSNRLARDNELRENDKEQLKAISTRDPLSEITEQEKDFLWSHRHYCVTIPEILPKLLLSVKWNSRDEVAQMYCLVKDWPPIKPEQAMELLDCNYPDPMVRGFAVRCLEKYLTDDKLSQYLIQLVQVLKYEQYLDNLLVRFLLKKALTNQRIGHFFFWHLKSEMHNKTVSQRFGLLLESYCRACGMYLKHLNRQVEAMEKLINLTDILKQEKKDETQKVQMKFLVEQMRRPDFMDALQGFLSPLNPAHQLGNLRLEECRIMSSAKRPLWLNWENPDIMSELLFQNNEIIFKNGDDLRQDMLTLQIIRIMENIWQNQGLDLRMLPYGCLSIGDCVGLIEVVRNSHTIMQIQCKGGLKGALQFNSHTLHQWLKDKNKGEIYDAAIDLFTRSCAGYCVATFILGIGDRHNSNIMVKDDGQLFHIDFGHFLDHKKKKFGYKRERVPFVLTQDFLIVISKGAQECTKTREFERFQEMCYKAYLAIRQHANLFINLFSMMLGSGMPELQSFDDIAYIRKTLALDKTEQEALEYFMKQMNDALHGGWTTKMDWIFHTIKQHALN

| SMILES | remaining binding at 1 µM (panel of 468 kinases [1]) [%] | remaining binding at 1 µM (panel of 468 kinases [2]) [%] | remaining binding at 1 µM (panel of 468 kinases [3]) [%] | remaining binding at 1 µM (panel of 468 kinases [4]) [%] | remaining binding at 1 µM (panel of 468 kinases [5]) [%] |
| --- | --- | --- | --- | --- | --- |
| CNc1nc(Nc2ccc(S(=O)(=O)N3CCC(N4CCOCC4)CC3)cc2OC)nc2[nH]cc(Cl)c12 [Compound 12, 5-chloro-N2-(2-methoxy-4-((4-morpholinopiperidin-1-yl)sulfonyl)phenyl)-N4-methyl-7H-pyrrolo[2,3-d]pyrimidine-2,4-diamine] | 100 | 100 | 56 | 100 | 100 |
| CNc1nc(Nc2ccc(C(=O)N3CCC(N4CCOCC4)CC3)c3c2OCO3)nc2[nH]cc(Cl)c12 [Compound 75, (7-((5-chloro-4-(methylamino)-7H-pyrrolo[2,3-d]pyrimidin-2-yl)amino)benzo[d][1,3]dioxol-4-yl)(4-morpholinopiperidin-1-yl)methanone] | 13 | 100 | 86 | 100 | 100 |
| CNc1nc(Nc2ccc(P3(=O)CCN(C4CCOCC4)CC3)cc2OC)nc2[nH]cc(Cl)c12 [Compound 77, 4-(4-((5-chloro-4-(methylamino)-7H-pyrrolo[2,3-d]pyrimidin-2-yl)amino)-3-methoxyphenyl)-1-(tetrahydro-2H-pyran-4-yl)-1,4-azaphosphinane 4-oxide] | 99 | 100 | 61 | 91 | 100 |
